Assay results as given in US9062124B2, “GIP-based mixed agonists for treatment of metabolic disorders and obesity” (priority 2008, dated 2015).
Where a SMILES comes first, the peptide text is derived from it. Bridges are numbered along the chain shown (N, C = ends). [ ]: non-standard residue; d: D form. Aib = CC(C)(N)C(=O)O

Tests used:
Format in all cases: cell-based
GIP receptor = target: T1, GIP receptor (Homo sapiens, UniProt P48546); experiment: cAMP synthesis functional assay (firefly luciferase reporter in HEK293 cells), GIP receptor
T1 construct: expressed in transfected cells; host or cells: HEK293
T1 sequence (P48546 22-466): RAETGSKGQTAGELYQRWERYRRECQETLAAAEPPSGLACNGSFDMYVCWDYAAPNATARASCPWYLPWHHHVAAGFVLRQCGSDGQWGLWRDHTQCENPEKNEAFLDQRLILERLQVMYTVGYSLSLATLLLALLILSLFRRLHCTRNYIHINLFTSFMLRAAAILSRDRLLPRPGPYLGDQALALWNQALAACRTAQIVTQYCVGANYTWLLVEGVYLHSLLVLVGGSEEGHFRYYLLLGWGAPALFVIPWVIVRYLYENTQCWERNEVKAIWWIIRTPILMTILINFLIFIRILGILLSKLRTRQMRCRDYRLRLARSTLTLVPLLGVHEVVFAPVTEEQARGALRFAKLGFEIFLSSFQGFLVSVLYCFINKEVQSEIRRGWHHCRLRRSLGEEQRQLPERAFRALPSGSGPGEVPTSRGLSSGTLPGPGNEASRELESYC

glucagon receptor = target: T2, glucagon receptor (Homo sapiens, UniProt P47871); experiment: cAMP synthesis functional assay (firefly luciferase reporter in HEK293 cells), glucagon receptor; settings: for EC50: Glucagon Receptor EC50, cAMP luciferase reporter assay as in Example 16
T2 construct: expressed in transfected cells; host or cells: HEK293

GLP-1 receptor = target: T3, GLP-1 receptor (Homo sapiens, UniProt P43220); experiment: cAMP synthesis functional assay (firefly luciferase reporter in HEK293 cells), GLP-1 receptor; settings: for EC50: GLP-1 Receptor EC50, cAMP luciferase reporter assay as in Example 16
T3 construct: expressed in transfected cells; host or cells: HEK293

[1] = system: glucagon receptor, GLP-1 receptor or GIP receptor; experiment: Agonist profile across receptors assigned from the cAMP reporter assay data; settings: assigned from the in vitro EC50 data of Tables 1-4
[2] = GIP Receptor EC50, cAMP luciferase reporter assay as in Example 16
[3] = relative to the standard (Std.) EC50 of the same run
[4] = Table 1, relative to the native hormone of the indicated receptor

T2 sequence (P47871 26-477): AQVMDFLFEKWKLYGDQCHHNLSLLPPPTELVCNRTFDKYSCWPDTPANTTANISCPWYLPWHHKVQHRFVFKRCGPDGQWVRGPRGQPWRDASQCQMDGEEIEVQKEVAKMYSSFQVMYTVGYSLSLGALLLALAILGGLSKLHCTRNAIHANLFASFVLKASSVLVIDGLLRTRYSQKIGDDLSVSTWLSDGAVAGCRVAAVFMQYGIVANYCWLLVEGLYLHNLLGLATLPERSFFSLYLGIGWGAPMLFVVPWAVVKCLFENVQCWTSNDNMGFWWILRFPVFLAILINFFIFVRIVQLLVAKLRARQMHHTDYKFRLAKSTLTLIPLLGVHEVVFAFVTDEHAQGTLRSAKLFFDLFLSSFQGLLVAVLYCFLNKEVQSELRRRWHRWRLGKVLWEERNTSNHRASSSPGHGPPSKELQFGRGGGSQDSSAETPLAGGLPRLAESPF
T3 sequence (P43220 24-463, species assumed): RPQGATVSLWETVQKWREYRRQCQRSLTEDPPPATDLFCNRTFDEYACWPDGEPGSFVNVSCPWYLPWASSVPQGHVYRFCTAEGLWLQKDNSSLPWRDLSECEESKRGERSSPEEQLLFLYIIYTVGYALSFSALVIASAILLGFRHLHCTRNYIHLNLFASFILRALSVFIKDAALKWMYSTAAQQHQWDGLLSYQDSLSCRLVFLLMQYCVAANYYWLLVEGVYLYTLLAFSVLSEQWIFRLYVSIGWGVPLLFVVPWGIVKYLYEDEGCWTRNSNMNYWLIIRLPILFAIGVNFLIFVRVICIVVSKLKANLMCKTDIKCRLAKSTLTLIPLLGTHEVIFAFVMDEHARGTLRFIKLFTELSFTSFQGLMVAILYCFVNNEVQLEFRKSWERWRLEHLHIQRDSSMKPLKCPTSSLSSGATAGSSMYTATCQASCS

Row | GIP Receptor relative activity (GIP receptor; Table 2) [%] | Glucagon Receptor relative activity (glucagon receptor; Table 2) [%] | GLP-1 Receptor relative activity (GLP-1 receptor; Table 2) [%] | EC50 (GIP receptor; GIP Receptor EC50, nM, Table 1) [nM] | GIP Receptor relative activity (GIP receptor; [4]) [%] | Glucagon Receptor relative activity (glucagon receptor; [4]) [%] | GLP-1 Receptor relative activity (GLP-1 receptor; [4]) [%] | SMILES | EC50 (GIP receptor; [2]) [nM] | GIP Receptor relative activity (GIP receptor; [3]) [%] | EC50 (glucagon receptor) [pM] | Glucagon Receptor relative activity (glucagon receptor; [3]) [%] | EC50 (GLP-1 receptor) [pM] | GLP-1 Receptor relative activity (GLP-1 receptor; [3]) [%] | receptor activity profile (glucagon / GLP-1 / GIP agonism) [1]
1 | – | – | – | – | – | – | – | CCCCCCCCCCCCCCCCCC(=O)NCCCC[C@H](NC(=O)[C@@H](NC(=O)[C@H](Cc1ccccc1)NC(=O)[C@H](CCC(=O)O)NC(=O)C(C)(C)NC(=O)[C@H](C)NC(=O)[C@H](C)NC(=O)[C@H](CCC(N)=O)NC(=O)[C@H](CCCCN)NC(=O)[C@H](CC(=O)O)NC(=O)[C@H](CC(C)C)NC(=O)[C@H](Cc1ccc(O)cc1)NC(=O)[C@@H](NC(=O)[C@H](CO)NC(=O)[C@H](Cc1ccc(O)cc1)NC(=O)[C@H](CC(=O)O)NC(=O)[C@H](CO)NC(=O)[C@@H](NC(=O)[C@H](Cc1ccccc1)NC(=O)[C@@H](NC(=O)CNC(=O)[C@H](CCC(=O)O)NC(=O)C(C)(C)NC(=O)[C@@H](N)Cc1ccc(O)cc1)[C@@H](C)O)[C@@H](C)O)[C@@H](C)CC)C(C)C)C(=O)N[C@@H](Cc1c[nH]c2ccccc12)C(=O)N[C@@H](CC(C)C)C(=O)N[C@@H](CC(C)C)C(=O)N[C@@H](C)C(=O)NCC(=O)NCC(=O)N1CCC[C@H]1C(=O)N[C@@H](CO)C(=O)N[C@@H](CO)C(=O)NCC(=O)N[C@@H](C)C(=O)N1CCC[C@H]1C(=O)N1CCC[C@H]1C(=O)N1CCC[C@H]1C(=O)N[C@@H](CO)C(N)=O [mt-267] | 1.31 | 0.65 | 62000 | 0.07 | 2090 | 0.84 | exhibited activity at the GIP, GLP-1, and glucagon receptors
2 | – | – | – | – | – | – | – | CCCCCCCCCCCCCCCC(=O)NCCCC[C@H](NC(=O)[C@@H](NC(=O)[C@H](Cc1ccccc1)NC(=O)[C@H](CCC(=O)O)NC(=O)C(C)(C)NC(=O)[C@H](C)NC(=O)[C@H](C)NC(=O)[C@H](CCC(N)=O)NC(=O)[C@H](CCCCN)NC(=O)[C@H](CC(=O)O)NC(=O)[C@H](CC(C)C)NC(=O)[C@H](Cc1ccc(O)cc1)NC(=O)[C@@H](NC(=O)[C@H](CO)NC(=O)[C@H](Cc1ccc(O)cc1)NC(=O)[C@H](CC(=O)O)NC(=O)[C@H](CO)NC(=O)[C@@H](NC(=O)[C@H](Cc1ccccc1)NC(=O)[C@@H](NC(=O)CNC(=O)[C@H](CCC(=O)O)NC(=O)C(C)(C)NC(=O)[C@@H](N)Cc1ccc(O)cc1)[C@@H](C)O)[C@@H](C)O)[C@@H](C)CC)C(C)C)C(=O)N[C@@H](Cc1c[nH]c2ccccc12)C(=O)N[C@@H](CC(C)C)C(=O)N[C@@H](CC(C)C)C(=O)N[C@@H](C)C(=O)NCC(=O)NCC(=O)N1CCC[C@H]1C(=O)N[C@@H](CO)C(=O)N[C@@H](CO)C(=O)NCC(=O)N[C@@H](C)C(=O)N1CCC[C@H]1C(=O)N1CCC[C@H]1C(=O)N1CCC[C@H]1C(=O)N[C@@H](CO)C(N)=O [mt-266] | 0.164 | 5.19 | 18600 | 0.23 | 1530 | 1.15 | exhibited activity at the GIP, GLP-1, and glucagon receptors
3 | 16.84 | 14.08 | 58.91 | – | – | – | – | CC[C@H](C)[C@H](NC(=O)[C@H](CO)NC(=O)[C@H](Cc1ccc(O)cc1)NC(=O)[C@H](CC(=O)O)NC(=O)[C@H](CO)NC(=O)[C@@H](NC(=O)[C@H](Cc1ccccc1)NC(=O)[C@@H](NC(=O)CNC(=O)[C@H](CCC(N)=O)NC(=O)C(C)(C)NC(=O)[C@@H](N)Cc1ccc(O)cc1)[C@@H](C)O)[C@@H](C)O)C(=O)N[C@@H](Cc1ccc(O)cc1)C(=O)N[C@@H](CC(C)C)C(=O)N[C@@H](CC(=O)O)C(=O)N[C@@H](CCC(=O)O)C(=O)N[C@@H](CCC(N)=O)C(=O)N[C@@H](C)C(=O)N[C@@H](C)C(=O)NC(C)(C)C(=O)N[C@@H](CCC(=O)O)C(=O)N[C@@H](Cc1ccccc1)C(=O)N[C@H](C(=O)N[C@@H](CS)C(=O)N[C@@H](Cc1c[nH]c2ccccc12)C(=O)N[C@@H](CC(C)C)C(=O)N[C@@H](CC(C)C)C(=O)N[C@@H](C)C(=O)NCC(N)=O)C(C)C [mt-258] (H-Y[Aib]QGTFTSDYSIYLDEQAA[Aib]EFVCWLLAG-NH2; N-terminus assumed) | – | – | – | – | – | – | exhibited activities of glucagon/GLP-1/GIP triagonists
4 | – | – | – | – | – | – | – | CCCCCCCCCCCCCCCC(=O)NCCCC[C@H](NC(=O)[C@H](CO)NC(=O)[C@@H]1CCCN1C(=O)[C@@H]1CCCN1C(=O)[C@@H]1CCCN1C(=O)[C@H](C)NC(=O)CNC(=O)[C@H](CO)NC(=O)[C@H](CO)NC(=O)[C@@H]1CCCN1C(=O)CNC(=O)CNC(=O)[C@H](CC(N)=O)NC(=O)[C@H](CCSC)NC(=O)[C@H](CC(C)C)NC(=O)[C@H](Cc1c[nH]c2ccccc12)NC(=O)[C@H](CS)NC(=O)[C@@H](NC(=O)[C@H](Cc1ccccc1)NC(=O)[C@H](CCC(=O)O)NC(=O)C(C)(C)NC(=O)[C@H](C)NC(=O)[C@H](C)NC(=O)[C@H](CCC(N)=O)NC(=O)[C@H](CCCCN)NC(=O)[C@H](CC(=O)O)NC(=O)[C@H](CC(C)C)NC(=O)[C@H](Cc1ccc(O)cc1)NC(=O)[C@@H](NC(=O)[C@H](CO)NC(=O)[C@H](Cc1ccc(O)cc1)NC(=O)[C@H](CC(=O)O)NC(=O)[C@H](CO)NC(=O)[C@@H](NC(=O)[C@H](Cc1ccccc1)NC(=O)[C@@H](NC(=O)CNC(=O)[C@H](CCC(N)=O)NC(=O)C(C)(C)NC(=O)[C@@H](N)Cc1ccc(O)cc1)[C@@H](C)O)[C@@H](C)O)[C@@H](C)CC)C(C)C)C(N)=O [mt-297] | 0.0168 | 97.02 | 13.2 | 362.12 | 12.9 | 125.58 | exhibited activity at the GIP, GLP-1, and glucagon receptors
5 | – | – | – | 0.164 | 16.46 | 109.93 | 56.52 | CC[C@H](C)[C@H](NC(=O)[C@H](CO)NC(=O)[C@H](Cc1ccc(O)cc1)NC(=O)[C@H](CC(=O)O)NC(=O)[C@H](CO)NC(=O)[C@@H](NC(=O)[C@H](Cc1ccccc1)NC(=O)[C@@H](NC(=O)CNC(=O)[C@H](CCC(N)=O)NC(=O)C(C)(C)NC(=O)[C@@H](N)Cc1ccc(O)cc1)[C@@H](C)O)[C@@H](C)O)C(=O)N[C@@H](Cc1ccc(O)cc1)C(=O)N[C@@H](CC(C)C)C(=O)N[C@@H](CC(=O)O)C(=O)N[C@H]1CCC(=O)NCCCC[C@@H](C(=O)N[C@@H](CCC(=O)O)C(=O)N[C@@H](Cc2ccccc2)C(=O)N[C@H](C(=O)N[C@@H](CC(N)=O)C(=O)N[C@@H](Cc2c[nH]c3ccccc23)C(=O)N[C@@H](CC(C)C)C(=O)N[C@@H](CC(C)C)C(=O)N[C@@H](C)C(=O)NCC(N)=O)C(C)C)NC(=O)[C@H](C)NC(=O)[C@H](C)NC(=O)[C@H](CCC(N)=O)NC1=O [mt-164] (H-Y[Aib]QGTFTSDYSIYLDEQAAKEFVNWLLAG-NH2; lactam 16-20; N-terminus assumed) | – | – | – | – | – | – | exemplary GLP-1/GIP/glucagon triagonist peptides
6 | – | – | – | – | – | – | – | CC[C@H](C)[C@H](NC(=O)[C@H](CO)NC(=O)[C@H](Cc1ccc(O)cc1)NC(=O)[C@H](CC(=O)O)NC(=O)[C@H](CO)NC(=O)[C@@H](NC(=O)[C@H](Cc1ccccc1)NC(=O)[C@@H](NC(=O)CNC(=O)[C@H](CCC(N)=O)NC(=O)C(C)(C)NC(=O)[C@@H](N)Cc1ccc(O)cc1)[C@@H](C)O)[C@@H](C)O)C(=O)N[C@@H](Cc1ccc(O)cc1)C(=O)N[C@@H](CC(C)C)C(=O)N[C@@H](CC(=O)O)C(=O)N[C@@H](CCCN)C(=O)N[C@@H](CCC(N)=O)C(=O)N[C@@H](C)C(=O)N[C@@H](C)C(=O)NC(C)(C)C(=O)N[C@@H](CCC(=O)O)C(=O)N[C@@H](Cc1ccccc1)C(=O)N[C@H](C(=O)N[C@@H](CC(N)=O)C(=O)N[C@@H](Cc1c[nH]c2ccccc12)C(=O)N[C@@H](CC(C)C)C(=O)N[C@@H](CC(C)C)C(=O)N[C@@H](C)C(=O)NCC(=O)NCC(=O)N1CCC[C@H]1C(=O)N[C@@H](CO)C(=O)N[C@@H](CO)C(=O)NCC(=O)N[C@@H](C)C(=O)N1CCC[C@H]1C(=O)N1CCC[C@H]1C(=O)N1CCC[C@H]1C(=O)N[C@@H](CO)C(=O)N[C@@H](CS)C(N)=O)C(C)C [mt-275] | – | 112.10 | – | 62.15 | 6.8 | 104.41 | exhibited activity at the GIP, GLP-1, and glucagon receptors
